Experimental data reported in ChEMBL document CHEMBL3997852, “Discovery of Fluorine-Containing Benzoxazinyl-oxazolidinones for the Treatment of Multidrug Resistant Tuberculosis” (ACS Med Chem Lett, 2017).
≈ marks a conversion by molar mass, not a printed value.

What was measured:
[1] = tested on: Mycobacterium tuberculosis; experiment: Antitubercular activity against isoniazid/rifampicin-resistant Mycobacterium tuberculosis 16892 clinical isolate after 7 days by microplate alamar blue assay; format: functional; conditions: Mycobacterium tuberculosis, 16892, 168 h
[2] = tested on: Mycobacterium tuberculosis; experiment: Antitubercular activity against isoniazid/rifampicin/streptomycin/ethambutol/levofloxacin-resistant Mycobacterium tuberculosis 16802 clinical isolate after 7 days by microplate alamar blue assay; format: functional; conditions: Mycobacterium tuberculosis, 16802, 168 h

| SMILES | MIC90 [1] [µg/mL] | MIC90 [2] [µg/mL] |
| --- | --- | --- |
| O=C(NC[C@@H]1OC(=O)N2c3cc(F)c(C4=CCN(CCO)CC4)cc3OC[C@@H]12)C1CC1 | 0.5 (≈ 1.16 µM) | 1 (≈ 2.32 µM) |
| CC(=O)NC[C@@H]1OC(=O)N2c3cc(F)c(C4=CCN(CCO)CC4)cc3OC[C@@H]12 | 0.5 (≈ 1.23 µM) | 2 (≈ 4.93 µM) |
| CC(=O)NC[C@@H]1OC(=O)N2c3cc(F)c(C4=CCN(C(=O)CO)CC4)cc3OC[C@@H]12 | 0.25 (≈ 0.596 µM) | 0.5 (≈ 1.19 µM) |
| CC(=O)NC[C@@H]1OC(=O)N2c3cc(F)c(C4=CCN(C(=O)[C@@H](O)CO)CC4)cc3OC[C@@H]12 | 0.25 (≈ 0.556 µM) | 1 (≈ 2.23 µM) |
| CC(=O)NC[C@@H]1OC(=O)N2c3cc(F)c(C4=CCN(C(=O)CN)CC4)cc3OC[C@@H]12.Cl | 0.25 | 2 |
| NNC(=O)c1ccncc1 [ISONIAZID] | > 40 | 2.5 (≈ 18.2 µM) |
| CO[C@H]1/C=C/O[C@@]2(C)Oc3c(C)c(O)c4c(O)c(c(/C=N/N5CCN(C)CC5)c(O)c4c3C2=O)NC(=O)/C(C)=C\C=C\[C@H](C)[C@H](O)[C@@H](C)[C@@H](O)[C@@H](C)[C@H](OC(C)=O)[C@@H]1C [RIFAMPIN] | > 40 | 20 (≈ 24.3 µM) |
